# Counter-ions that a name gives are not always drawn. Like-named read-outs stand apart in the source and are kept apart here.
# Assays:
# KKA^y mice = assay: Blood glucose and blood lipid (triglyceride) lowering action in mice; assay type: in vivo; details: Mus musculus, po, 96 h, 0.005% in powder diet, 4 days, non-administration group = 100%
# Text: The test compound was mixed with a powder diet (CE-2, CLEA JAPAN, INC.) at a proportion of 0.005% (0.01% for the compound of Example 105) and freely given to KKA^y mice (9 to 12-week-old, 5 mice per group) which are obesity-insulin independent diabetes mellitus (type-2 diabetes) models, for 4 days. During this period, water was freely given. The blood was drawn from the orbital venous plexus. Glucose and triglyceride in the plasma separated from the blood were quantitated using L Type Wako Glu2 (Wako Pure Chemical Industries, Ltd.) and L Type Wako TG•H (Wako Pure Chemical Industries, Ltd.), respectively, according to an enzyme method.
# PPARγ-RXRα heterodimer = molecular target: T1, PPARγ-RXRα heterodimer (Homo sapiens, UniProt P37231); assay: PPARγ-RXRα heterodimer ligand activity (luciferase reporter); assay type: cell-based; details: PPARγ:RXRα:4ERPP/CHO-K1 cells, 18-24 hr, concentration showing 50% of the maximum induction rate
# T1 construct: expressed in transfected cells; host or cells: CHO-K1
# T1 sequence (P37231 1-505): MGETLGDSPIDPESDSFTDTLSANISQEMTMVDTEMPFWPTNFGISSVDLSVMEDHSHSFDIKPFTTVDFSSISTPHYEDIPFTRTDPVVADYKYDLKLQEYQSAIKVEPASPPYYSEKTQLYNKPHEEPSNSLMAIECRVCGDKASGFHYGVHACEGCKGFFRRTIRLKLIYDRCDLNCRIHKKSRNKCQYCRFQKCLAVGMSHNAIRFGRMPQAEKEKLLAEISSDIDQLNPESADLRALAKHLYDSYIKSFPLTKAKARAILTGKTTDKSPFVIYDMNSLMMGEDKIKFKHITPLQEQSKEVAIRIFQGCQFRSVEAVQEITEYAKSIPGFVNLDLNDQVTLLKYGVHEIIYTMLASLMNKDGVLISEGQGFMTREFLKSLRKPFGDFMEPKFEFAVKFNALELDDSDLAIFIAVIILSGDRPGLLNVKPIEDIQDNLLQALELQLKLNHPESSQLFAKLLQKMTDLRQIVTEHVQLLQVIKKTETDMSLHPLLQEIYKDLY
# T1 sequence (P19793 1-462 partner): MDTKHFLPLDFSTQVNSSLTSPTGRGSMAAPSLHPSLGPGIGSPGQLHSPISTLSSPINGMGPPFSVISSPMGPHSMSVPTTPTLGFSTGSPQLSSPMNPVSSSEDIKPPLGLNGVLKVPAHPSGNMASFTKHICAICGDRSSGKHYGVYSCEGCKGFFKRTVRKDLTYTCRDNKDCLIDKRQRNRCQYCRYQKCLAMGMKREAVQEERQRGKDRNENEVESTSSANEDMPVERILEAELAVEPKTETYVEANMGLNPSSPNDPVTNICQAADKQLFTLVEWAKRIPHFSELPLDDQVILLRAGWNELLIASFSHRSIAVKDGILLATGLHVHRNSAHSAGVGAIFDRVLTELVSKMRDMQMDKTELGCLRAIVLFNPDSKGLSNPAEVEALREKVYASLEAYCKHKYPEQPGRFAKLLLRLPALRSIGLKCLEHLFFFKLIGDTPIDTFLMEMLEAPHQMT
# Protocol: The PPARγ:RXRα:4ERPP/CHO-K1 cells described in WO03/099793 were cultured in a Ham F12 medium [manufactured by Life Technologies, Inc., US] containing 10% calf fetal serum [manufactured by Life Technologies, Inc., US], sown in a 96-well white plate [manufactured by Corning Coster Corporation, US] at 2×10^4 cells/well, and incubated overnight in a carbon dioxide gas incubator at 37° C.
# Then, the medium was removed from the 96 well white plate, 80 μl of Ham F12 medium containing 0.1% fatty acid-free bovine serum albumin (BSA) and a test compound (20 μl) were added, and the cells were incubated for 18-24 hr in a carbon dioxide gas incubator at 37° C. The medium was removed, 40 μl of PicaGene 7.5 (manufactured by Wako Pure Chemical Industries, Ltd.) diluted 2-fold with HBSS (HANKS' BALANCED SALT SOLUTION) [manufactured by BIO WHITTAKER, US] was added. After stirring, the luciferase activity was determined using the 1420 ARVO Multilabel Counter [manufactured by PerkinElmer, US].
# The induction rate was calculated from the luciferase activity of each test compound based on the luciferase activity of the test compound non-administration group as 1. The test compound concentration and the induction rate were analyzed by PRISM [manufactured by GraphPad Software, Inc., US] to calculate EC50 value (compound concentration showing 50% of the maximum value of induction rate) of the test compound.
# [1] = lowering rate of plasma glucose, read-out: hypoglycemic action (%)
# [2] = lowering rate of plasma triglyceride, read-out: hypolipidemic action (%)
Structure (SMILES),EC50 (PPARγ-RXRα heterodimer) [nM],melting point [°C],inhibition in vivo at 0.005 % (KKA^y mice; [1]) [%],inhibition in vivo at 0.005 % (KKA^y mice; [2]) [%]
"COc1cccc(CC(=O)O)c1OCCCc1cc(OC(C)C)nn1C(C)c1ccc(Cl)cc1Cl (centres unmarked) [Example 17, [2-(3-{1-[1-(2,4-dichlorophenyl)ethyl]-3-isopropoxy-1H-pyrazol-5-yl}propoxy)-3-methoxyphenyl]acetic acid]",6.2,–,57,78
"COc1cccc(CC(=O)O)c1OCCCc1cc(OC(C)C)nn1Cc1ccccc1C [Example 21, (2-{3-[3-isopropoxy-1-(2-methylbenzyl)-1H-pyrazol-5-yl]propoxy}-3-methoxyphenyl)acetic acid]",41,–,51,78
"CC(C)Oc1cc(CCCOc2ncccc2CC(=O)O)n(Cc2ccc(Cl)cc2Cl)n1 [Example 31, (2-{3-[1-(2,4-dichlorobenzyl)-3-isopropoxy-1H-pyrazol-5-yl]propoxy}pyridin-3-yl)acetic acid]",14,88 to 90,44,55
"COc1cccc(CC(=O)O)c1OCCCc1cc(OC(C)C)nn1Cc1ccc(F)cc1F [Example 60, (2-{3-[1-(2,4-difluorobenzyl)-3-isopropoxy-1H-pyrazol-5-yl]propoxy}-3-methoxyphenyl)acetic acid]",–,–,54,76
"COc1cccc(CC(=O)O)c1OCCCc1cc(OC(C)C)nn1Cc1ccccc1Cl [Example 61, (2-{3-[1-(2-chlorobenzyl)-3-isopropoxy-1H-pyrazol-5-yl]propoxy}-3-methoxyphenyl)acetic acid]",25,–,51,90
"CC(C)c1cc(CCCOc2ncccc2CC(=O)O)n(Cc2ccc(C(F)(F)F)cc2Cl)n1 [Example 77, [2-(3-{1-[2-chloro-4-(trifluoromethyl)benzyl]-3-isopropyl-1H-pyrazol-5-yl}propoxy)pyridin-3-yl]acetic acid]",5.4,114 to 115,63,42
"CC(C)Oc1cc(CCCOc2ncccc2CC(=O)O)n(Cc2ccc(F)cc2Cl)n1 [Example 93, (2-{3-[1-(2-chloro-4-fluorobenzyl)-3-isopropoxy-1H-pyrazol-5-yl]propoxy}pyridin-3-yl)acetic acid]",42,90 to 91,–,–
"COCOc1cc(CCCOc2nn(Cc3ccccc3)cc2CC(=O)O)n(Cc2ccc(Cl)cc2Cl)n1 [Example 95, (1-benzyl-3-{3-[1-(2,4-dichlorobenzyl)-3-(methoxymethoxy)-1H-pyrazol-5-yl]propoxy}-1H-pyrazol-4-yl)acetic acid]",2.4,89.5 to 91.5,65,65
"CCS(=O)(=O)CCOc1cc(CCCOc2nn(Cc3ccccc3)cc2CC(=O)O)n(Cc2ccc(Cl)cc2Cl)n1 [Example 98, [1-benzyl-3-(3-{1-(2,4-dichlorobenzyl)-3-[2-(ethylsulfonyl)ethoxy]-1H-pyrazol-5-yl}propoxy)-1H-pyrazol-4-yl]acetic acid]",5.1,100.4 to 101.4,–,–

# Second part, led by results:
EC50 (PPARγ-RXRα heterodimer) [nM],melting point [°C],Structure (SMILES),inhibition in vivo at 0.005 % (KKA^y mice; [1]) [%],inhibition in vivo at 0.005 % (KKA^y mice; [2]) [%]
1.5,–,"CC(C)c1cc(CCCOc2nn(Cc3ccccc3)cc2CC(=O)O)n(Cc2ccc(C(F)(F)F)cc2Cl)n1 [Example 76, [1-benzyl-3-(3-{1-[2-chloro-4-(trifluoromethyl)benzyl]-3-isopropyl-1H-pyrazol-5-yl}propoxy)-1H-pyrazol-4-yl]acetic acid 1/2 calcium salt]",64,57
1.3,–,"Cc1cc(C(F)(F)F)ccc1Cn1nc(OC(C)C)cc1CCCOc1nn(Cc2ccccc2)cc1CC(=O)O [Example 78, [1-benzyl-3-(3-{3-isopropoxy-1-[2-methyl-4-(trifluoromethyl)benzyl]-1H-pyrazol-5-yl}propoxy)-1H-pyrazol-4-yl]acetic acid]",63,55
2.5,108 to 110,"CC(C)Oc1cc(CCCOc2nn(Cc3ccccc3)cc2CC(=O)O)n(Cc2ccc(Cl)cc2Cl)n1 [Example 86, (1-benzyl-3-{3-[1-(2,4-dichlorobenzyl)-3-isopropoxy-1H-pyrazol-5-yl]propoxy}-1H-pyrazol-4-yl)acetic acid]",51,51
1.2,111 to 113,"CC(C)Oc1ccc(CCCOc2nn(Cc3ccccc3)cc2CC(=O)O)c(Oc2ncc(Cl)cc2Cl)c1 [Example 133, [1-benzyl-3-(3-{2-[(3,5-dichloropyridin-2-yl)oxy]-4-isopropoxyphenyl}propoxy)-1H-pyrazol-4-yl]acetic acid]",–,–
0.61,99 to 100,"CC(C)Oc1ccc(CCCOc2cc(CCC(=O)O)n(Cc3ccccc3)n2)c(Oc2ncc(C(F)(F)F)cc2Cl)c1 [Example 137, 3-{1-benzyl-3-[3-(2-{[3-chloro-5-(trifluoromethyl)pyridin-2-yl]oxy}-4-isopropoxyphenyl)propoxy]-1H-pyrazol-5-yl}propanoic acid]",–,–
3.7,114 to 115,"CC(C)Oc1ccc(CCCOc2cc(CCC(=O)O)n(C3CCCCC3)n2)c(Oc2ncc(C(F)(F)F)cc2Cl)c1 [Example 144, 3-{3-[3-(2-{[3-chloro-5-(trifluoromethyl)pyridin-2-yl]oxy}-4-isopropoxyphenyl)propoxy]-1-cyclohexyl-1H-pyrazol-5-yl}propanoic acid]",–,–
5,101 to 103,"CCn1nc(OCCCc2ccc(OCCOC)cc2Oc2ncc(C(F)(F)F)cc2Cl)cc1CCC(=O)O [Example 149, 3-(3-{3-[2-{[3-chloro-5-(trifluoromethyl)pyridin-2-yl]oxy}-4-(2-methoxyethoxy)phenyl]propoxy}-1-ethyl-1H-pyrazol-5-yl)propanoic acid]",57,51
2.6,130.5 to 131.5,"CCn1nc(OCCCc2ccc(OCCOC(C)C)cc2Oc2ncc(C(F)(F)F)cc2Cl)cc1CCC(=O)O [Example 150, 3-(3-{3-[2-{[3-chloro-5-(trifluoromethyl)pyridin-2-yl]oxy}-4-(2-isopropoxyethoxy)phenyl]propoxy}-1-ethyl-1H-pyrazol-5-yl)propanoic acid]",58,54
1.5,103.5 to 104.5,"CC(C)OCCOc1ccc(CCCOc2nn(C)cc2CC(=O)O)c(Oc2ncc(C(F)(F)F)cc2Cl)c1 [Example 177, (3-{3-[2-{[3-chloro-5-(trifluoromethyl)pyridin-2-yl]oxy}-4-(2-isopropoxyethoxy)phenyl]propoxy}-1-methyl-1H-pyrazol-4-yl)acetic acid]",–,–

# Source: patent US20080051418A1, “Arylalkanoic Acid Derivative” (priority 2004, published 2008)
